This note sets out measurements from ChEMBL document CHEMBL3576791, “Rational Design of a Novel AMPA Receptor Modulator through a Hybridization Approach” (ACS Med Chem Lett, 2015).

Each structure is given as a SMILES string. Calls of active or inactive are those of the source. No cut-off for these calls is given here.

Common to all, as to type: cell-based
Experiment [1] deals with Glutamate receptor 2 (Homo sapiens) (UniProt P42262). The experiment can be described thus: Modulation of GluA2 flip receptor (unknown origin) transfected in HEK293 cells assessed as deactivation of channel at 30 uM by electrophysiology.
The target is the same in experiment [2]. The experiment can be described thus: Modulation of GluA2 flop receptor (unknown origin) transfected in HEK293 cells assessed as deactivation of channel at 30 uM by electrophysiology.
For experiment [3] the target is unchanged. Description: Modulation of GluA2 flip receptor (unknown origin) transfected in HEK293 cells assessed as desensitization measured as increase in steady-state current at 30 uM by electrophysiology.
Experiment [4] has the same target. The experiment can be described thus: Modulation of GluA2 flop receptor (unknown origin) transfected in HEK293 cells assessed as desensitization measured as increase in steady-state current at 30 uM by electrophysiology.
For experiment [5] the target is unchanged. Description: Modulation of GluA2 flip receptor (unknown origin) transfected in HEK293 cells assessed as deactivation of channel at 100 uM by electrophysiology.
Experiment [6] has the same target. Description: Modulation of GluA2 flop receptor (unknown origin) transfected in HEK293 cells assessed as deactivation of channel at 100 uM by electrophysiology.
For experiment [7] the target is unchanged. Description: Modulation of GluA2 flip receptor (unknown origin) transfected in HEK293 cells assessed as desensitization measured as increase in steady-state current at 100 uM by electrophysiology.
Experiment [8] has the same target. The experiment can be described thus: Modulation of GluA2 flop receptor (unknown origin) transfected in HEK293 cells assessed as desensitization measured as increase in steady-state current at 100 uM by electrophysiology.

Sequence of Glutamate receptor 2 (Homo sapiens) (P42262 whole entry): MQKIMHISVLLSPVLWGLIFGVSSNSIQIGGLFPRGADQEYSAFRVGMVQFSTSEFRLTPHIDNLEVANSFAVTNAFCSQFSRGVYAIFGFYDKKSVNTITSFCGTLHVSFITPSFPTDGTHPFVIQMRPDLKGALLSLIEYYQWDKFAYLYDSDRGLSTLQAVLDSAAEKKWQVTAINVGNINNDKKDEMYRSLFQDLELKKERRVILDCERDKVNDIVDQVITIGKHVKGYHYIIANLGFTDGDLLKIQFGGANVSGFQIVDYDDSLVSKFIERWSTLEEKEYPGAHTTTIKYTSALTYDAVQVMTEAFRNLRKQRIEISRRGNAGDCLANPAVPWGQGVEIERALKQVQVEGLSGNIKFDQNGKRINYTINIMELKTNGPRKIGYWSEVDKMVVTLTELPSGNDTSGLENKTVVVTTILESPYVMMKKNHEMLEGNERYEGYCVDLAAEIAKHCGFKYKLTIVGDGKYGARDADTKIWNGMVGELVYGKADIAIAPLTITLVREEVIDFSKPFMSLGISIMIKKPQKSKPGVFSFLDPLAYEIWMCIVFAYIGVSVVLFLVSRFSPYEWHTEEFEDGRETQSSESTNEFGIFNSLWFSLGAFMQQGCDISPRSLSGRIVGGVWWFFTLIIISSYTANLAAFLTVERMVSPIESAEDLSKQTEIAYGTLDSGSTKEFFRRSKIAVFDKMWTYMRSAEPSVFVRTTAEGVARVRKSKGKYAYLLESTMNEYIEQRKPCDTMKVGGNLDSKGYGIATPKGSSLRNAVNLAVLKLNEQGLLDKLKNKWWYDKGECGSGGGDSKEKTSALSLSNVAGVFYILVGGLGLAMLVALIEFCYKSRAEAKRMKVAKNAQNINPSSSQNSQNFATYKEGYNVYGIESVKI

With `O=C1c2ccc(Cn3cc(CO)c(C(F)(F)F)n3)cc2OC[C@@H]2CCCN12`, the result in experiment [1], in experiment [3] and in experiment [4] was Active. The result in experiment [2] was inactive.
As for `NC(=O)c1c(NC(=O)Cn2cc(CO)c(C(F)(F)F)n2)sc2ccccc12`, the result in experiment [5], in experiment [6], in experiment [7] and in experiment [8] was Active.
For `O=S1(=O)c2ccc(Cn3cc(CO)c(C(F)(F)F)n3)cc2OC[C@@H]2CCCN21`, the outcome in experiment [1] and in experiment [2] was inactive. The outcome in experiment [3] and in experiment [4] was Active.
On to `O=C1c2ccc(-n3cc(CO)c(C(F)(F)F)n3)cc2OC[C@@H]2CCCN12`, for which the outcome in experiment [1], in experiment [2], in experiment [3] and in experiment [4] was inactive.
